For test [1], the target named is T1, Cyclooxygenase-2 (Ovis aries, UniProt P79208).
T1 construct: Cyclooxygenase-2 (from sheep placenta); from tissue; host or cells: sheep placenta; assay by Panlabs
Put plainly: biochemical. It is filed as biochemical, sheep. The method, then:
The reaction is initiated by addition of arachidonic acid (100 mM) and terminated after 20 minutes incubation at 37° C. by addition of TCA.

Test [2] deals with T2, 5-lipoxygenase (Rattus norvegicus, UniProt P12527).
T2 sequence (P12527 1-673): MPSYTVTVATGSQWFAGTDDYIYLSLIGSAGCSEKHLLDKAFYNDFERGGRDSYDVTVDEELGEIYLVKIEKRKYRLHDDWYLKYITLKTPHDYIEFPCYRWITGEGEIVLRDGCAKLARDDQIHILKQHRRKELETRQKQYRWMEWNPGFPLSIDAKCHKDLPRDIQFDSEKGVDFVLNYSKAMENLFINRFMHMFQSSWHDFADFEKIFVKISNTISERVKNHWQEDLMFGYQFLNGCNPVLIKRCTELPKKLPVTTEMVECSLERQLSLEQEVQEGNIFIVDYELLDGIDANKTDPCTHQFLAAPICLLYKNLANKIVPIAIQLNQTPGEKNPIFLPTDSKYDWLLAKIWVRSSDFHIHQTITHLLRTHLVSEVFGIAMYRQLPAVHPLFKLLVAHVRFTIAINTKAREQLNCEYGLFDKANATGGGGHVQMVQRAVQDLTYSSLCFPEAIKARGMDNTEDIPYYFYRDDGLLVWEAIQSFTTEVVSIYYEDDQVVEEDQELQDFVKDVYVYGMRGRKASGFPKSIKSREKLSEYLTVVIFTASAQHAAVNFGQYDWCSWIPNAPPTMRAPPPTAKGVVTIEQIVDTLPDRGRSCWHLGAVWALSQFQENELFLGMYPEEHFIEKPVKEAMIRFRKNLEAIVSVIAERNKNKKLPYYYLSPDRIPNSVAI
Put plainly: biochemical. The following applies: for 5-Lipo activity: screened at 3×10^-5 (30 μM).
Description: The procedure was as follows. 5-lipoxygenase assays were run using a crude enzyme preparation from rat basophilic leukemia cells (RBL-1). Test compounds were pre-incubated with the enzyme for 5 minutes at room temperature and the reaction was initiated by addition of substrate (arachidonic acid). Following an 8 minute incubation at room temperature, the reaction was terminated by addition of citric acid, and levels of 5-HETE were determined by 5-HETE radioimmunoassay (RIA).
Compounds and fractions were screened at an initial concentration of 3×10^-5.

For test [3], the target named is T3, Cyclooxygenase-1 (Ovis aries, UniProt P05979).
T3 construct: Cyclooxygenase-1 (from ram seminal vesicles); from tissue; host or cells: ram seminal vesicles; assay by Panlabs
T3 sequence (P05979 25-600): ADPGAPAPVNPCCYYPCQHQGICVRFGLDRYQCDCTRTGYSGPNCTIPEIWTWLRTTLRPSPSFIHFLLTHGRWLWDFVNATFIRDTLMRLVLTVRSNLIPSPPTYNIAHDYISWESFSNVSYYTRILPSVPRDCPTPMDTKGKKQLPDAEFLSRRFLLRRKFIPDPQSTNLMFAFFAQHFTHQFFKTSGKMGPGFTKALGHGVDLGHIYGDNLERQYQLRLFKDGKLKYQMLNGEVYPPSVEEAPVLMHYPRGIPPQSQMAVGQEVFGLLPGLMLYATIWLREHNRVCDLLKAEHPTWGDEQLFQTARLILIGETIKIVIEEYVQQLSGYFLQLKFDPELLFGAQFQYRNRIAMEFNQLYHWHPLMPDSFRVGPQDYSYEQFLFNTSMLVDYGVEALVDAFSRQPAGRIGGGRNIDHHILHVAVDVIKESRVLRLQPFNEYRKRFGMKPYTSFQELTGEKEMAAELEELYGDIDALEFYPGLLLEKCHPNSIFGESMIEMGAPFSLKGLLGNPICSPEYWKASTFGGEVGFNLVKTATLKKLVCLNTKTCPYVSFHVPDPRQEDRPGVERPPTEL
The test can be described thus: biochemical. The format is biochemical, ram. Conditions: for Cox1 activity: screened at 3×10^-4 M. The method, then:
The reaction was initiated by addition of arachidonic acid (100 mM) and terminated after 20 minutes incubation at 37° C. by addition of trichloroacetic acid (TCA).

Test [4] addresses T4, rat prostatic androgen receptor (Rattus norvegicus, UniProt P15207).
T4 construct: the ventral prostates were rapidly removed and placed in ice-cold "homogenization buffer"; from tissue; host or cells: washed nuclear suspension of ventral prostate from testosterone-treated male rats (Harlan)
T4 sequence (P15207 1-902): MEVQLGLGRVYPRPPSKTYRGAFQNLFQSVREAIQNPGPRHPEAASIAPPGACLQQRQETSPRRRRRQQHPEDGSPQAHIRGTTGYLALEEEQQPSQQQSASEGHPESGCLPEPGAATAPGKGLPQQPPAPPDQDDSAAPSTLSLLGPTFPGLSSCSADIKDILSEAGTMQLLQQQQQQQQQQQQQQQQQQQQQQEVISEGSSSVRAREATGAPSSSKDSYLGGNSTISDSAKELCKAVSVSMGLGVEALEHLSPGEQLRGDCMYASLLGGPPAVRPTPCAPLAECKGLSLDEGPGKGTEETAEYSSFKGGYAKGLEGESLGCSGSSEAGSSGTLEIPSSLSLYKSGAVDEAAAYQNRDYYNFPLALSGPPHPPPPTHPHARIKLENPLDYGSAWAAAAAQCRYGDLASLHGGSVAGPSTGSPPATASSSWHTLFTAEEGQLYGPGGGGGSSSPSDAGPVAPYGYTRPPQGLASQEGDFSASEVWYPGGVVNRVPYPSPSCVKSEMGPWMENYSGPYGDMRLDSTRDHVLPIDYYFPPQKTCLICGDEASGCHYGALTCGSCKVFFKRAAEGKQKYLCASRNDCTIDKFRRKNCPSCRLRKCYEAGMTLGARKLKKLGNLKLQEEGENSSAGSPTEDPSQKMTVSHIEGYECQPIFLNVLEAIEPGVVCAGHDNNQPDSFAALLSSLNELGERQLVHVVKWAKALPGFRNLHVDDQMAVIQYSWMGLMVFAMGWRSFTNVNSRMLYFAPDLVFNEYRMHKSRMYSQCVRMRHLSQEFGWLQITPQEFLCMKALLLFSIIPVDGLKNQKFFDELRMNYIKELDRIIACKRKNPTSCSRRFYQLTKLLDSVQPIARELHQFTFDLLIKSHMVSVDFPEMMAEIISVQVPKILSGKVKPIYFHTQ
The test can be described thus: Rat prostatic nuclear androgen receptor binding assay against 3H-dihydrotestosterone. The method, then: Rats were fed with Purina chow and tap water, ad libitum.
General chemicals (reagent grade), free fatty acids, fatty acid ethyl esters and radioinert steroids were obtained from Sigma Chemical Company (St. Louis, Mo.). ^3 H-dihydrotestosterone (5α-androstan-17β-ol-3-one; 60 Ci/mmol) was purchased from NEN Life Science Products (Boston, Mass.). 100% ethanol was used throughout for the preparations of all inhibitors and radioinert chemicals.
The animals were treated intraperitoneally with testosterone (400 μg/100 g body wt). […] The homogenate was centrifuged at 800×g for 20 minutes at 4° C. […] The resuspended pellet was homogenized on ice using a glass Dounce homogenizer until suspension became uniform.
Non-specific binding was determined using radioinert dihydrotestosterone (10^-5 M) in place of the inhibitor. The test tubes were incubated for 20 hours at 15° C.
After an overnight incubation, 1 ml of ice-cold nuclear buffer was added followed by centrifugation at 800×g for 10 minutes at 4° C. The nuclear pellets were washed 3 times by resuspension in 1 ml of the same ice-cold nuclear buffer, with mixing and centrifugation as above. After discarding the final supernatant, 1 ml of 100% ethanol was added to each pellet and then vortexed. Test tubes were placed in a 30° C. water bath for 40 minutes, with vortexing every 10 minutes and a final centrifugation at 800 g for 10 minutes. The ethanol extracts were decanted into vials containing 4 ml of scintillation fluid (Ecoscint A), shaken and counted.
The results, expressed as percent inhibition of ^3 H-Dihydrotestosterone binding, at two concentrations of putative active components, of the rat prostatic androgen receptor assay are below.

The subject of test [5] is smooth muscle. Conditions: cited from earlier work.
Where [6] appears, read: Table 8, read-out: Cyclooxygenase-2 IC50 (Table 8).
Where [7] appears, read: Table 8, read-out: 5 Lipoxygenase IC50 (Table 8).
Setting [8] is: Table 8, read-out: Cyclooxygenase-1 IC50 (Table 8).

These results are taken from patent publication US6039950A, “Pharmaceutical grade saw palmetto” (priority 1997, dated 2000).

Where “and” joins values, the source holds several entries; their conditions need not be identical. Identical values can stand only once. Like-named read-outs stand apart in the source and are kept apart here.

T1 sequence (P79208 17-603): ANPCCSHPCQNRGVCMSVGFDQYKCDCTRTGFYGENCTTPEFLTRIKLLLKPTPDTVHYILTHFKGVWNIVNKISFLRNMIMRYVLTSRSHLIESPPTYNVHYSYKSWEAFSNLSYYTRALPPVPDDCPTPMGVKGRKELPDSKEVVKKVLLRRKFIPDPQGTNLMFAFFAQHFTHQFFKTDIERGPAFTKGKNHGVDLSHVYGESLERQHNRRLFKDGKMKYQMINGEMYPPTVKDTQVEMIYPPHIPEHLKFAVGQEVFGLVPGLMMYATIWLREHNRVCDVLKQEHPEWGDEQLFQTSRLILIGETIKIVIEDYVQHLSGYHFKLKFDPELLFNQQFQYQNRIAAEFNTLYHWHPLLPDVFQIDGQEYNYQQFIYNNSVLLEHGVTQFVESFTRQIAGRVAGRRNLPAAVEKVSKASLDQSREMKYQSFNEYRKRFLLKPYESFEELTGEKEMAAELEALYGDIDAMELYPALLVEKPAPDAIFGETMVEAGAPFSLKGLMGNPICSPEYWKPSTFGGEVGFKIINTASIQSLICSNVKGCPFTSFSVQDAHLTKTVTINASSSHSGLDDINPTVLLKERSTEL

Take `CCCCCCCCCCCCCCCC(=O)O` [Palmitic Acid]: the Cox2 activity entry in test [1] is reported as “Negative”. For the same molecule, the concentration for half-maximal inhibition (IC50) in test [1] (setting [6]) was greater than 300 µM; in test [2] (setting [7]), greater than 30 µM; in test [3] (setting [8]), greater than 300 µM. Also, the 5-Lipo activity result in test [2] is recorded as “Negative”. Also, in test [3], the Cox1 activity entry is “Negative”.

On to `C/C(=C\CO)CCC[C@H](C)CCC[C@H](C)CCCC(C)C` [Phytol], for which the “% Inh, individual experiment” value was 87.0% and 64% and 97% and 8.0% and 31% and 29% and 33% in test [4] (1.00E-04 M); 0.0% and 76% and 10% and 4.0% and 26% and 38% and 41% in test [4] (1.00E-05 M); 82.0% and 88% and 81% and 31% and 25% and 3.0% and 7.0% in test [4] (1.00E-06 M); 89.0% and 90% and 32% and 25% and 9.0% and 20% and 21% in test [4] (3.00E-05 M); 65% and 0.0% and 9.0% and 73% in test [4] (3.00E-06 M); 14.0% and 2.0% and 0.0% in test [4] (3.00E-07 M). Moreover, the “% Inh, Mean” value was 32.0% in test [4] (1.00E-05 M, SE 10.1); 31.0% in test [4] (1.00E-06 M, SE 14.12); 28.5% in test [4] (3.00E-05 M, SE 12.8); 9.0% in test [4] (3.00E-06 M, SE 12.5); 2.0% in test [4] (3.00E-07 M, SE 4.3). Moreover, the concentration for half-maximal inhibition (IC50) in test [4] (Table 4, marker compounds, read-out: Androgen Receptor IC50 (Table 4)) is 10 µM; in test [4] (read-out: androgen receptor assay IC50), 10 µM. Moreover, 10 µM produced 50% inhibition in test [4] (at 10 μM).

Take `O=c1c(-c2ccc(O)cc2)coc2cc(O)cc(O)c12` [genistein]: the “effect on relaxant effect of Sabal extracts” value (“effect on relaxant effect” below) in test [5] is given as “not modified”.

Turning to `NCCCC(N)(C(=O)O)C(F)F` (stereo not shown) [a-difluoromethyl-ornithine], in test [5], the “effect on relaxant effect” value was “not modified”.

Turning to `O=C1CCN(c2ccccc2)N1` [phenidone, reference compound], the IC50 in test [2] (reference compound, read-out: IC50, reference compounds, 5-lipoxygenase) turned out to be 30 µM.

In the case of `CC(C)NC[C@H](O)COc1cccc2ccccc12` [L-propranolol], the “effect on relaxant effect” value in test [5] was “potentiated”.

For `CC[C@H](CC[C@@H](C)[C@H]1CC[C@H]2[C@@H]3CC=C4C[C@@H](O)CC[C@]4(C)[C@H]3CC[C@]12C)C(C)C` [β-sitosterol], the half-maximal inhibitory concentration (IC50) was greater than 300 µM in test [1], greater than 30 µM in test [2] and greater than 300 µM in test [3].

As for `CC/C=C\C/C=C\C/C=C\CCCCCCCC(=O)OCC` [Ethyl linolenate], the Cox2 activity entry in test [1] is recorded as “Negative”. Besides, the IC50 in test [1] (setting [6]) is greater than 300 µM; in test [2] (setting [7]) it was greater than 30 µM; in test [3] (setting [8]), greater than 300 µM. The 5-Lipo activity entry in test [2] was “Negative”. Further, in test [3], the Cox1 activity entry is reported as “Negative”.

As for `CCCCCCCCCCCCCC(=O)OCC` [Myristic Ester, ethyl myristate], the Cox2 activity entry in test [1] is “Negative”. Moreover, in test [2], the 5-Lipo activity result is “Negative”. In addition, the Cox1 activity entry in test [3] is reported as “Negative”.

In the case of `C[C@@H]1C[C@@H]([C@H](O)CC2CC(=O)NC(=O)C2)C(=O)[C@@H](C)C1` [Cycloheximide], the “effect on relaxant effect” value in test [5] is “antagonized”.

As for `CCCCC/C=C\C/C=C\CCCCCCCC(=O)OCC` [Ethyl linoleate, ethyl linoleate], in test [1], the Cox2 activity entry is given as “Negative”. Further, the IC50 in test [1] (setting [6]) is greater than 300 µM; in test [2] (setting [7]), greater than 30 µM; in test [3] (setting [8]), greater than 300 µM. Moreover, in test [2], the 5-Lipo activity entry is given as “Negative”. Further, the Cox1 activity result in test [3] is “Negative”.

In the case of `CCCCCCCC/C=C\CCCCCCCC(=O)O` [Oleic Acid], in test [1], the Cox2 activity result is given as “Negative”. Besides, the IC50 in test [1] is greater than 300 µM; in test [2] (setting [7]), greater than 30 µM; in test [3] (setting [8]), greater than 300 µM. For the same molecule, the 5-Lipo activity result in test [2] is “Negative”. Besides, in test [3], the Cox1 activity result is “Negative”.

As for `CCCCCCCC/C=C\CCCCCCCC(=O)OCC` [Ethyl Oleate], the Cox2 activity entry in test [1] is “Negative”. In addition, the IC50 in test [1] was greater than 300 µM; in test [2], greater than 30 µM; in test [3] (setting [8]), greater than 300 µM. For the same molecule, the 5-Lipo activity result in test [2] is reported as “Negative”. In addition, the Cox1 activity result in test [3] was “Negative”.

As for `CCCCCCCCCCCCCC(=O)O` [Myristic Acid], in test [1], the Cox2 activity entry is “Negative”. The IC50 in test [1] (setting [6]) is greater than 300 µM; in test [2] it was greater than 30 µM; in test [3] (setting [8]) it was greater than 300 µM. Also, in test [2], the 5-Lipo activity entry was “Negative”. Besides, the Cox1 activity result in test [3] was “Negative”.

As for `CCCCCCCCCCCCCCCC(=O)OCC` [Ethyl Palmitate], the Cox2 activity result in test [1] is listed as “Negative”. The IC50 in test [1] (setting [6]) is greater than 300 µM; in test [2] (setting [7]), greater than 30 µM; in test [3] (setting [8]), greater than 300 µM. Besides, the 5-Lipo activity result in test [2] is “Negative”. Besides, the Cox1 activity entry in test [3] is on record as “Negative”.
